Converted amounts (≈) assume the structure as drawn. “And” between values parts separate entries of the source, which are not always exact repeats. Equal entries are not always repeated. Where two headings read alike, the source gives them in different places. Marks after values point to notes of the source that are not given here.
Key:
[1] = Microsomal stability assay (half-life), mouse; type: in vitro ADME; details: Mouse (CD1) microsomes, read-out: Microsomal stability T1/2
Text: (§1) Table 20 provides results of in vitro and in vivo pharmacokinetics performed for each of the represented compounds.

[2] = Protein binding via Rapid Equilibrium Dialysis - plasma; type: in vitro ADME; details: Rat (SD) plasma, 2 μM
Text: as §1

[3] = tested on: H3K9ac; test: Western blot, differentiated CAD cell lysates, H3K9ac levels; type: cell-based; details: differentiated CAD cells, DMSO = 100.00%
Text: as §1

[4] = In vivo PK, oral gavage, plasma; design: species or system Rat (SD)
Text: as §1
(§2) Tables 4 and 5 depict the summary of rat plasma sample concentrations after administration of ADG I-204. FIG. 6 provides a summary of rat plasma and brain concentrations.

[5] = In vivo PK, IV dose, plasma; design: species or system Rat (SD); details: for Plasma concentration, mean / Plasma concentration, individual animal: IV 1 mg/kg
Text: as §1, §2

[6] = Microsomal stability assay (half-life), rat; type: in vitro ADME; details: Rat (SD) microsomes, read-out: Microsomal stability T1/2
Text: as §1

[7] = In vivo PK, oral gavage, plasma; design: species or system Rat (SD); details: Rat, PO 5 mg/kg, BQL limit 1.00 ng/mL, listed as ADG I-206, 5 mg/kg
[8] = In vivo PK, IV dose, Terminal - brain (brain availability); design: species or system Rat (SD); details: for Brain concentration, mean / Brain concentration, individual animal: IV 1 mg/kg
Method: Table 3 and FIG. 5 depict the brain availability of ADG I-204, ADG I-205, ADG I-206, and ADG I-207 after IV administration of 1 mg/kg dose.

[9] = Microsomal stability assay (half-life), human; type: in vitro ADME; details: Human microsomes, read-out: Microsomal stability T1/2
Text: as §1

[10] = Turbidity-based aqueous solubility; type: physicochemical; details: aqueous solution (composition not given), kinetic from dmso stock, read-out: highest soluble concentration
Text: as §1

half-life at 2 μM [1]: 4.39 min | Protein binding, plasma: % Protein free [2]: 0.6565 % Protein free | Plasma concentration, mean ([4]; Rat (SD), PO 5 mg/kg, 24 hr, BQL = below quantitation limit (1.00 ng/mL)): BQL | Plasma concentration, individual animal ([4]; Rat, PO 5 mg/kg, 24.0 hr, BQL limit 1.00 ng/mL): BQL | concentration at 0.25 h ([4]; SD, rat, plasma, po, 5 mg/kg, Rat (SD), 0.25 hr, BQL = below quantitation limit (1.00 ng/mL), read-out: Plasma concentration, mean): 1.47 ng/mL | concentration at 0.5 h ([4]; SD, rat, plasma, po, 5 mg/kg, Rat (SD), 0.5 hr, BQL = below quantitation limit (1.00 ng/mL), read-out: Plasma concentration, mean): 2.32 ng/mL | concentration at 1 h ([4]; SD, rat, plasma, po, 5 mg/kg, Rat (SD), 1 hr, BQL = below quantitation limit (1.00 ng/mL), read-out: Plasma concentration, mean): 7.14 ng/mL | concentration at 4 h ([4]; SD, rat, plasma, po, 5 mg/kg, Rat (SD), 4 hr, BQL = below quantitation limit (1.00 ng/mL)): 12.8 ng/mL | concentration at 8 h ([4]; SD, rat, plasma, po, 5 mg/kg, Rat (SD), 8 hr, BQL = below quantitation limit (1.00 ng/mL), read-out: Plasma concentration, mean): 12.2 ng/mL | concentration at 0.25 h ([4]; SD, rat, plasma, po, 5 mg/kg, Rat, 0.250 hr, BQL limit 1.00 ng/mL, read-out: Plasma concentration, individual animal): 1.47 ng/mL | concentration at 0.5 h ([4]; SD, rat, plasma, po, 5 mg/kg, Rat, 0.500 hr, BQL limit 1.00 ng/mL, read-out: Plasma concentration, individual animal): 2.86 ng/mL | concentration at 1 h ([4]; SD, rat, plasma, po, 5 mg/kg, Rat, 1.00 hr, BQL limit 1.00 ng/mL, read-out: Plasma concentration, individual animal): 5.47 ng/mL | concentration at 8 h ([4]; SD, rat, plasma, po, 5 mg/kg, Rat, 8.00 hr, BQL limit 1.00 ng/mL, read-out: Plasma concentration, individual animal): 15.6 ng/mL | Plasma concentration, mean ([5]; Rat (SD), 8 hr, terminal, listed as ADG I-206, 1 mg/kg): 5 ng/mL | Plasma concentration, mean ([5]; Rat (SD), 24 hr, terminal, BQL limit 1.00 ng/mL (ADG I-205: 2.00 ng/mL)): BQL | Plasma concentration, individual animal ([5]; Rat, 0.500 hr, not terminal (animals 4, 5 and 6), listed as ADG I-206, 1 mg/kg): 7310** ng/mL and 527 ng/mL and 507 ng/mL | Plasma concentration, individual animal ([5]; Rat, 1.00 hr, terminal, listed as ADG I-206, 1 mg/kg): 177 ng/mL and 142 ng/mL | Plasma concentration, individual animal ([5]; Rat, 4.00 hr, terminal, BQL limit 1.00 ng/mL (ADG I-205: 2.00 ng/mL), listed as ADG I-206, 1 mg/kg): 4.19 ng/mL and 1.81 ng/mL | Plasma concentration, individual animal ([5]; Rat, 8.00 hr, terminal, BQL limit 1.00 ng/mL (ADG I-205: 2.00 ng/mL), listed as ADG I-206, 1 mg/kg): BQL and 1.44 ng/mL and 8.52 ng/mL | Plasma concentration, individual animal ([5]; Rat, 24.0 hr, terminal, BQL limit 1.00 ng/mL (ADG I-205: 2.00 ng/mL)): BQL | concentration at 0.083 h ([5]; SD, rat, plasma, iv, 1 mg/kg, Rat (SD), 0.083 hr, terminal, read-out: Plasma concentration, mean): 1090 ng/mL | concentration at 0.5 h ([5]; SD, rat, plasma, iv, 1 mg/kg, Rat (SD), 0.500 hr, not a terminal time point (animals 4, 5 and 6)): 2780 ng/mL | concentration at 1 h ([5]; SD, rat, plasma, iv, 1 mg/kg, Rat (SD), 1 hr, terminal, read-out: Plasma concentration, mean): 165 ng/mL | concentration at 4 h ([5]; SD, rat, plasma, iv, 1 mg/kg, Rat (SD), 4 hr, terminal, read-out: Plasma concentration, mean): 3 ng/mL | concentration at 8 h ([5]; SD, rat, plasma, iv, 1 mg/kg, Rat (SD), 8 hr, terminal, read-out: Plasma concentration, mean): 4.98 ng/mL | concentration at 1 h ([5]; SD, rat, plasma, iv, 1 mg/kg, Rat, 1.00 hr, terminal, read-out: Plasma concentration, individual animal): 176 ng/mL | half-life at 2 μM [6]: 6.36 min | Plasma concentration, individual animal ([7]; 0.250 hr): BQL | Plasma concentration, individual animal ([7]; 0.500 hr): 2.16 ng/mL and 1.93 ng/mL | Plasma concentration, individual animal ([7]; 1.00 hr): 9.00 ng/mL and 6.94 ng/mL | Plasma concentration, individual animal ([7]; 4.00 hr): 17.2 ng/mL and 8.32 ng/mL | Plasma concentration, individual animal ([7]; 8.00 hr): 8.89 ng/mL | Brain concentration, mean ([8]; Rat (SD), 1 hr, listed as ADG I-206, 1 mg/kg): 67 ng/g | Brain concentration, mean ([8]; Rat (SD), 4 hr, BQL limit 10.0 ng/g (204, 206), 20.0 ng/g (205, 207)): BQL | Brain concentration, mean ([8]; Rat (SD), 8 hr, BQL limit 10.0 ng/g (204, 206), 20.0 ng/g (205, 207)): BQL | Brain concentration, mean ([8]; Rat (SD), 24 hr, BQL limit 10.0 ng/g (204, 206), 20.0 ng/g (205, 207)): BQL | Brain concentration, individual animal ([8]; Rat, 0.0830 hr, third animal received only 70% of the test article, listed as ADG I-206, 1 mg/kg): 1080 ng/g and 1050 ng/g and 455*** ng/g | Brain concentration, individual animal ([8]; Rat, 1.00 hr, listed as ADG I-206, 1 mg/kg): 57.6 ng/g and 74.3 ng/g | Brain concentration, individual animal ([8]; Rat, 4.00 hr, BQL limit 10.0 ng/g (204, 206), 20.0 ng/g (205, 207)): BQL | Brain concentration, individual animal ([8]; Rat, 8.00 hr, BQL limit 10.0 ng/g (204, 206), 20.0 ng/g (205, 207)): BQL | Brain concentration, individual animal ([8]; Rat, 24.0 hr, BQL limit 10.0 ng/g (204, 206), 20.0 ng/g (205, 207)): BQL | concentration at 0.083 h ([8]; SD, rat, brain, iv, 1 mg/kg, Rat (SD), 0.083 hr): 862 ng/g | concentration at 1 h ([8]; SD, rat, brain, iv, 1 mg/kg, Rat (SD), 1 hr, read-out: Brain concentration, mean): 66.9 ng/g | concentration at 1 h ([8]; SD, rat, brain, iv, 1 mg/kg, Rat, 1.00 hr, read-out: Brain concentration, individual animal): 68.8 ng/g | half-life at 2 μM [9]: 43.3 min | solubility [10]: 5 µM (≈ 1.83 µg/mL)
Structure (SMILES): CNC(=O)Nc1ccc2nc(-c3cccs3)c(-c3cccs3)nc2c1 [ADG-206, 1-(2,3-di(thiophen-2-yl)quinoxalin-6-yl)-3-methylurea]
H3K9ac levels normalized to H3 and DMSO control ([3]; 1 uM): 46.94% | H3K9ac levels normalized to H3 and DMSO control ([3]; 5 uM): 35.39% | H3K9ac levels normalized to H3 and DMSO control ([3]; 10 uM): 19.49% | H3K9ac levels normalized to H3 and DMSO control ([3]; 20 uM): 8.45% | H3K9ac levels normalized to H3 and DMSO control ([3]; 50 uM): 5.83% | H3K9ac levels normalized to H3 and DMSO control ([3]; 100 uM): 1.24% | Plasma concentration, individual animal ([5]; Rat, 0.0830 hr, terminal, third animal received only 70% of the test article, listed as ADG I-206, 1 mg/kg): 1500 ng/mL and 1160 ng/mL and 610*** ng/mL
